Data set [1] deals with mammary adenocarcinoma R3230AC tumors. Description: Tumor perfusion by Laser Doppler flowmetry. The format is in vivo, rat. Further details: key to TUMOR perfusion: 0, unchanged; ↓, decreased; ↑, increased. To be noted: for tumor blood flow (perfusion), flank tumors: normoxic rats.
For a further data set, the system named is tumor-feeding arterioles. Description: Diameter of tumor-feeding arterioles in window chambers. The format is in vivo, rat. Set-up: key to TUMOR vascular diameter: 0, unchanged; ↓, decreased; ↑, increased. To be noted: for TUMOR vascular diameter: IV. The source says: For i.v. infusions, the femoral artery and vein were cannulated and drugs were infused through the venous cannula. For i.a. infusions, the femoral and left carotid arteries were cannulated and drugs were infused through the carotid cannula. For window chamber experiments, the two window frames were surgically positioned in the dorsal skin flap, followed by tumor cell transplantation to the chamber tissue, as described in Dewhirst et al., 1996. Following several days of tumor growth, direct visualization of tumor-feeding arterioles was performed using intravital microscopy. Tumor-feeding arterioles in window chambers were visualized using transillumination. Arteriolar diameters were measured from videotaped images using an image-shearing monitor (IPM Inc., San Diego, Calif., United States of America).

For data set [2], the system named is Fischer 344 rats. The experiment in a line: Mean arterial pressure and heart rate. The class given is in vivo, rat. Further details: key to SYSTEMIC MAP / SYSTEMIC HR: 0, unchanged; ↓, decreased; ↑, increased. On the procedure:
Mean arterial pressure (MAP) and heart rate (HR) were measured with a blood pressure analyzer (Digi-Med, Micro-Med, Louisville, Ky., United States of America) connected to the femoral artery cannula as described in Dewhirst et al., 1996.

Data set [3] relates to Fischer 344 rats. The experiment in a line: Blood gas and hemoglobin saturation measurements. The format is in vivo, rat. To be noted: breathing 100% O2. On the procedure:
Blood gases and Hb oxygen saturation were measured using a 1640 oximeter coupled to a 482 co-oximeter (Instrumentation Laboratories, Lexington, Mass., United States of America) from 0.5 ml samples of femoral arterial and venous blood. For tumor microvessels in window chambers, Hb saturation was calculated from transmission optical measurements of vascular absorbance using a hyperspectral imaging technique described in Sorg et al., 2005. A liquid crystal tunable filter (CRI, Inc., Woburn, Mass., United States of America) placed in front of a CCD camera (DVC Company, Austin, Tex., United States of America) was used for band-limited imaging.

For data set [4], the system named is mammary adenocarcinoma R3230AC tumors. The experiment in a line: Tumor pO2 during gas breathing. The format is in vivo, rat. On the procedure: (§1) Tumors were implanted in rats as described hereinabove, and the rats were set up to breathe either 100% O2, 100% O2 plus 100 parts per million ethyl nitrite (ENO), normal room air, or normal room air plus 100 ppm ENO. pO2 was monitored in the tumor or in quadriceps muscle from 30 minutes before the administration of the 100% O2/100% O2 plus 100 ppm ENO/room air/room air plus 100 ppm ENO, during 30 minutes of breathing of the gases, and for 30 minutes after the administered gas supply was removed.

Data set [5] deals with quadriceps muscle. The experiment in a line: Quadriceps muscle pO2 during gas breathing. The format is in vivo, rat. On the procedure:
as §1

In data set [6] the test system is mammary adenocarcinoma R3230AC tumors. The experiment in a line: Tumor growth delay after radiation. The format is in vivo, rat. To be noted: 100 ppm ENO plus 100% O2; 2 Gy daily on days 0-4; versus 100% O2, room air, non-irradiated. On the procedure: Tumors were implanted in rats as described hereinabove, and the tumors were irradiated daily with 2 Gy of irradiation on days 0-4. Relative tumor volumes were determined daily from day 0 to day 18 in rats that breathed room air (N=4), 100% O2 (N=4), or 100 ppm ENO plus 100% O2. As a control, relative tumor volumes for rats that breathed room air (N=3) and were not treated with radiation. were also determined.

Data set [7] relates to quadriceps muscle. The experiment in a line: Quadriceps muscle (systemic) perfusion by Laser Doppler flowmetry. The class given is in vivo, rat. Set-up: key to SYSTEMIC perfusion: 0, unchanged; ↓, decreased; ↑, increased. To be noted: for muscle blood flow (leg quadriceps): hyperoxia versus normoxia.
Data set [8] relates to baroreceptor and peripheral vasculature. Description: Summary of bioactivity of cell-free SNO-Hb and oxy-Hb (Table 3). The class given is in vivo, rat.
Data set [9] can be described thus: Hb tetramer/dimer dissociation. The class given is physicochemical. To be noted: assuming plasma concentration of about 6.5 μmol/L, room air. From the text: Hb dissociation from tetramers to dimers depends on Hb concentration and oxygen tension, and NO release from dimers is unresponsive to allosteric effectors (e.g., O2). […] Is there enough tetrameric SNO-Hb to sense oxygen and regulate NO delivery? Evidently yes, as a finely tuned regulation of SNO-Hb bioactivity by oxygen tension (NO release depends on local pO2) that contrasted with the O2-independent behavior of oxy-Hb was observed. That the plasma half-life of SNO on Hb was more than doubled during hyperoxia while protein clearance remained unaffected was also observed.

The conditions of data set [10]: cited from earlier work.
The mark [11] stands for this setting: 30 minutes breathing 100% O2 or 100% O2 plus 100 ppm ENO.
The mark [12] stands for this setting: 30 minutes breathing room air plus 100 ppm ENO.
Where [13] appears, read: IV, Room air, change versus before treatment.
The mark [14] stands for this setting: i.v. infusion, normoxic animals.
The mark [15] stands for this setting: vascular pO2 at injection site low.
The mark [16] stands for this setting: i.a. and i.v. infusion, control experiments.
Setting [17] is: vascular pO2 at injection site any.

We go through 6 molecules from patent publication US8466110B2, “Use of an agent that restores tissue perfusion and oxygenation” (Duke University, priority 2005, dated 2013).

Entries after “also recorded” stand apart in the source; their conditions may differ.

For `O=O` [100% O2], in data set [1] (100% O2 alone, before drug infusion), the “effects of hyperoxia alone on tumor and muscle perfusion” value is reported as “transient decrease that resumed within 5 minutes (i.e., before drug infusion) to no change”. The “diameter of tumor feeding arterioles” value in the data set with tumor-feeding arterioles (hyperoxia alone, t=-5 to t=0) is given as “no vascular effect”. Moreover, in the data set with Fischer 344 rats [2] (hyperoxia alone, N=19), the “change in HR” value was −3% and the “change in MAP” value is “+1%”. In addition, in the data set with Fischer 344 rats [3], the “Femoral artery HbO2” value was determined as 98.2 ± 0.1 %, the “Femoral artery pCO2” value amounted to 56.9 ± 1.7 mm Hg, the “Femoral artery pO2” value is listed as 435.5 ± 34.7 mm Hg and the “Femoral vein HbO2” value is on record as 75.8 ± 3.4 %. In the data set with Fischer 344 rats [3], the “Femoral vein pCO2” value is listed as 72.0 ± 2.1 mm Hg and the “Femoral vein pO2” value is 69.8 ± 3.0 mm Hg. For the same molecule, in the data set on Fischer 344 rats [3] (window chamber), the “Tumor artery HbO2” value is given as 89 ± 2 % and the “Tumor vein HbO2” value is reported as 78 ± 3 %. Moreover, the pO2 in tumors result in [4] (setting [11]) was “insufficient to raise the pO2 to above 10 mm Hg”. Moreover, the “pO2 in quadriceps muscle” value in the data set on quadriceps muscle [5] (setting [11]) is on record as “increased rapidly”.
Take `CCON=O` [ENO, ethyl nitrite]: the pO2 in tumors entry in data set [4] (setting [11]) is “above 10 mm Hg”; in [4] (setting [12]) it was “remained largely unchanged”. The “pO2 in quadriceps muscle” value is given as “increased rapidly” in the data set on quadriceps muscle [5] (setting [11]) and “this effect was not seen” in the data set with quadriceps muscle [5] (setting [12]). Also, the “growth of irradiated tumors (relative tumor volume)” value in data set [6] was “grew more slowly”.
As to S-nitrosohemoglobin [SNO-Hb], the TUMOR perfusion in data set [1] (IA, 100% O2) is listed as 0; in [1] (IA, Room air), 0; in data set [1] (IV, 100% O2), 0; in data set [1] (setting [13]) it was “↓*”. In addition, in [1] (i.a. infusion, hyperoxic rats versus i.a. room air), the “pressor activity (tumor perfusion)” value is listed as “not altered”. For the same molecule, the “decrease in tumor perfusion” value in data set [1] (i.a. infusion, normoxic animals, compared to i.v.) is “not significantly different compared to i.v. infusion”. Further, the “tumor perfusion, flank tumors” value in data set [1] (i.v. infusion, 100% O2 (hyperoxia) versus room air) was “hyperoxia abolished the reduction in tumor perfusion”. Further, the “tumor perfusion, window chamber tumors” value in [1] (i.v. infusion, hyperoxic rats) is recorded as “this decrease was prevented”; in data set [1] (setting [14]), “potent decrease in tumor perfusion”. For the same molecule, the “tumor blood flow (perfusion), flank tumors” value (“tumor blood flow (perfusion)” for short) in data set [1] (i.v. infusion) is recorded as “reduced perfusion”. For the same molecule, the SYSTEMIC perfusion was 0 with quadriceps muscle [7] (IA, 100% O2); 0 in the data set on quadriceps muscle [7] (IA, Room air); 0 with quadriceps muscle [7] (IV, 100% O2); “↓” with quadriceps muscle [7] (IV, Room air). Further, the “muscle blood flow (quadriceps)” value in the data set with quadriceps muscle [7] (i.a. infusion, independently of O2 delivery) was “remained unaltered”. Moreover, the “muscle blood flow (leg quadriceps)” value in the data set with quadriceps muscle [7] (i.v. infusion) is “prevented under hyperoxia”. In addition, the “muscle perfusion in the quadriceps” value with quadriceps muscle [7] (i.v. infusion, rats breathing room air (normoxia)) is reported as “decreased muscle perfusion more than Hb; also recorded: decrease in muscle blood flow”. For the same molecule, the TUMOR vascular diameter with tumor-feeding arterioles (100% O2) and with tumor-feeding arterioles (Room air) was 0 each time. Moreover, the “diameter of tumor feeding arterioles” value in the data set with tumor-feeding arterioles (i.v. infusion, normoxic or hyperoxic rats, window chamber) is “no significant change”. Moreover, the “SYSTEMIC HR” value was 0 in the data set on Fischer 344 rats [2] (IA, 100% O2); 0 with Fischer 344 rats [2] (IA, Room air); 0 in the data set with Fischer 344 rats [2] (IV, 100% O2); 0 in the data set with Fischer 344 rats [2] (IV, Room air). In addition, the “SYSTEMIC MAP” value with Fischer 344 rats [2] (IA, 100% O2) is “↑”; in the data set on Fischer 344 rats [2] (IA, Room air) it was “↑”; in the data set with Fischer 344 rats [2] (IV, 100% O2), “↑”; in the data set with Fischer 344 rats [2] (IV, Room air) it was 0. In addition, the HR result in the data set with Fischer 344 rats [2] (i.a. infusion, normoxic and hyperoxic) was “remained unchanged”; in the data set on Fischer 344 rats [2] (i.v. infusion, hyperoxia), “no significant effect on HR”; with Fischer 344 rats [2] (setting [14]), “No change”. Besides, the MAP entry was “significant increase in MAP” in the data set with Fischer 344 rats [2] (i.a. infusion, from 5 minutes (normoxic) and 10 minutes (hyperoxic)); “significant increase in the MAP” in the data set with Fischer 344 rats [2] (i.v. infusion, hyperoxia, from 10 minutes after infusion); “No change” in the data set with Fischer 344 rats [2] (setting [14]). Also, the Baroreceptor effect result was “inhibition” in [8] (vascular pO2 at injection site high) and “none” in data set [8] (setting [15]). For the same molecule, the Peripheral effect entry in [8] (vascular pO2 at injection site high, dose-dependent effect) is “vasodilation”; in data set [8] (setting [15]), “vasoconstriction”. Besides, the “fraction present as tetramers” value in data set [9] was “about 35%”. Further, the “KD (tetramer/dimer), R conformer” value in data set [10] (R conformer) was 3000 nM. The “KD (tetramer/dimer), T conformer” value in data set [10] (T conformer) was 3 nM.
Regarding “SNO-albumin: bovine serum albumin reacted with NaNO2 (S-nitrosylated albumin) [reference compound]”, in data set [1] (i.v. infusion), the “tumor blood flow (perfusion)” value was “small increase in tumor perfusion”.
Take albumin [reference compound]: the TUMOR perfusion result in data set [1] (setting [16]) is on record as “did not induce any significant or differential change”. Also, in the data set with Fischer 344 rats [2] (setting [16]), the HR result is “did not induce any significant or differential change” and the MAP result is listed as “did not induce any significant or differential change”.
With “oxyhemoglobin [oxy-Hb, reference compound]”, the TUMOR perfusion entry was “↓” in [1] (IV, 100% O2) and “↓” in data set [1] (setting [13]). Also, the “tumor blood flow (perfusion)” value in data set [1] (i.v. infusion) is “rapid and sustained decrease in tumor blood flow”. Moreover, the SYSTEMIC perfusion entry is given as “↓” with quadriceps muscle [7] (IV, 100% O2) and “↓” in the data set with quadriceps muscle [7] (IV, Room air). Also, in the data set on quadriceps muscle [7] (i.v. infusion), the “muscle blood flow (leg quadriceps)” value is reported as “hyperoxia did not modify the effect of oxy-Hb in muscles”. For the same molecule, the “SYSTEMIC MAP” value in the data set with Fischer 344 rats [2] (IV, 100% O2) worked out at 0; with Fischer 344 rats [2] (IV, Room air), 0. Besides, the MAP result in the data set with Fischer 344 rats [2] (i.v. infusion, normoxia or hyperoxia) is recorded as “no effect on MAP”. For the same molecule, in the data set with Fischer 344 rats [2] (i.v. infusion, from 5 minutes after infusion, more severe in hyperoxic than in normoxic rats), the HR entry is recorded as “induced bradycardia”. Also, the Baroreceptor effect entry in data set [8] (setting [17]) is “none”. Moreover, the Peripheral effect entry in [8] (setting [17]) is given as “vasoconstriction”.
